Assay results published in PMC6096477, “Structure of a Talaromyces pinophilus GH62 arabinofuranosidase in complex with AraDNJ at 1.25 Å resolution” (Acta Crystallographica. Section F, Structural Biology …, 2018).

Molecular target: T1, Talaromyces pinophilus GH62 arabinofuranosidase (Talaromyces pinophilus, UniProt A0A2H5BN17)
T1 construct: single-module GH62 enzyme, secreted from Aspergillus oryzae; about 35 kDa; amino-terminal residue Ser24; chain traced 25-325; 2 subunits in asymmetric unit; no tag mentioned
T1 sequence (A0A2H5BN17 entry or part of it): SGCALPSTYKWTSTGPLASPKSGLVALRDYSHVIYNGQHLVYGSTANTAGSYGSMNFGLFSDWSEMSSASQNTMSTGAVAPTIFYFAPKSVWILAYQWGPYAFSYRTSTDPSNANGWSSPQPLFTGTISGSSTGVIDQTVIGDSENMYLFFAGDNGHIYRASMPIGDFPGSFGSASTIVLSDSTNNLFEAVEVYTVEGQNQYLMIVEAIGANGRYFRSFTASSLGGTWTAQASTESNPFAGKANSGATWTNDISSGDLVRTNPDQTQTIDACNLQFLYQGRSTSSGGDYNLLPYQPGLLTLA
Assay: isothermal titration calorimetry
Assay type: binding

OC[C@@H]1NC[C@H](O)[C@H]1O [AraDNJ, 1,4-dideoxy-l,4-imino-L-arabinitol]
Kd: 24 ± 0.4 µM
